{"source": "patent US11820773B2", "about": "“Tricyclic compounds” (ALIGOS THERAPEUTICS, INC., priority 2020, dated 2023)", "data": [{"tested_on": "HBV", "assay": "HBV-DNA antiviral assay using HepG2.117 cells (intracellular HBV DNA by qPCR)", "assay_type": "cell-based, genotype D HBV", "conditions": "Hepatitis B virus, 72 h, HBV DNA inhibition, 3 days incubation, 2% DMSO", "in_short": "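Endpoints are intracellular HBV DNA by qPCR (interpolated from a gBlock standard curve) and ATP-based viability in duplicate plates. Doxycycline-free HepG2.117 Tet-off cells received compounds (9 concentrations, 4-fold steps, 2% DMSO) for 3 days. Inhibition normalised to DMSO wells; EC50/EC90/CC50 by curve fitting.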", "units": {"EC50": "nM"}, "values": [{"smiles": "C[C@H]1Cc2c(n3ncc(Cc4ccccc4)c3n(-c3ccc(-n4nnnc4C(F)(F)F)cc3)c2=O)CN1C(=O)c1ccc(Br)c(C(F)(F)F)c1", "note": "(stereo in doubt) [Compound 92b, rac-(11S)-5-benzyl-12-[4-bromo-3-(trifluoromethyl)benzoyl]-11-methyl-7-[4-[5-(trifluoromethyl)tetrazol-1-yl]phenyl]-2,3,7,12-tetrazatricyclo[7.4.0.0^2,6]trideca-1(9),3,5-trien-8-one]", "EC50": "> 5000"}, {"smiles": "C[C@@H]1Cc2c(n3ncc(Cc4ccccc4)c3n(-c3ccc(-n4ccc(C(F)(F)F)n4)cc3)c2=O)CN1C(=O)c1ccc(Br)c(C(F)(F)F)c1", "note": "(stereo in doubt) [Compound 70a, rac-(11R)-5-benzyl-12-[4-bromo-3-(trifluoromethyl)benzoyl]-11-methyl-7-[4-[3-(trifluoromethyl)pyrazol-1-yl]phenyl]-2,3,7,12-tetrazatricyclo[7.4.0.0^2,6]trideca-1(9),3,5-trien-8-one]", "EC50": "50 to 500"}, {"smiles": "Cc1nnc(-c2ccc(-n3c(=O)c4c(n5ncc(Cc6ccccc6)c35)CN(C(=O)c3ccc(Cl)c(C(F)(F)F)c3)[C@H](C)C4)cc2)[nH]1", "note": "(stereo in doubt) [Compound 52a, rac-(11R)-5-benzyl-12-[4-chloro-3-(trifluoromethyl)benzoyl]-11-methyl-7-[4-(5-methyl-4H-1,2,4-triazol-3-yl)phenyl]-2,3,7,12-tetrazatricyclo[7.4.0.0^2,6]trideca-1(9),3,5-trien-8-one]", "EC50": "< 50"}, {"smiles": "C[C@@H]1Cc2c(n3ncc(Cc4ccccc4)c3n(-c3ccc(-c4cnnn4C)cc3)c2=O)CN1C(=O)c1ccc(Br)c(C(F)(F)F)c1", "note": "(stereo in doubt) [Compound 105a, rac-(11R)-5-benzyl-12-[4-bromo-3-(trifluoromethyl)benzoyl]-11-methyl-7-[4-(3-methyltriazol-4-yl)phenyl]-2,3,7,12-tetrazatricyclo[7.4.0.0^2,6]trideca-1(9),3,5-trien-8-one]", "EC50": "< 50"}, {"smiles": "Cc1nnc(-c2ccc(-n3c(=O)c4c(n5ncc(Cc6ccccc6)c35)CN(C(=O)c3ccc(Br)c(Cl)c3)[C@@H](C)C4)cc2)[nH]1", "note": "(stereo in doubt) [Compound 53b, rac-(11S)-5-benzyl-12-(4-bromo-3-chloro-benzoyl)-11-methyl-7-[4-(5-methyl-4H-1,2,4-triazol-3-yl)phenyl]-2,37,12-tetrazatricyclo[7.4.0.0^2,6]trideca-1(9),3,5-trien-8-one]", "EC50": "50 to 500"}, {"smiles": "C[C@H]1Cc2c(n3ncc(Cc4ccccc4)c3n(-c3ccc(-c4nc(=O)on4C)cc3)c2=O)CN1C(=O)c1ccc(Br)c(C(F)(F)F)c1", "note": "(stereo in doubt) [Compound 44b, 2-methyl-3-[4-[rac-(11S)-5-benzyl-12-[4-bromo-3-(trifluoromethyl)benzoyl]-11-methyl-8-oxo-2,3,7,12-tetrazatricyclo[7.4.0.0^2,6]trideca-1(9),3,5-trien-7-yl]phenyl]-1,2,4-oxadiazol-5-one]", "EC50": "< 50"}, {"smiles": "Cc1nnc(-c2ccc(-n3c(=O)c4c(n5ncc(Cc6ccccc6)c35)CN(C(=O)c3ccc(Br)c(C(F)(F)F)c3)[C@H](C)C4)cc2)[nH]1", "note": "(stereo in doubt) [Compound 47a, rac-(11R)-5-benzyl-12-[4-bromo-3-(trifluoromethyl)benzoyl]-11-methyl-7-[4-(5-methyl-4H-1,2,4-triazol-3-yl)phenyl]-2,3,7,12-tetrazatricyclo[7.4.0.0^2,6]trideca-1(9),3,5-trien-8-one]", "EC50": "< 50"}, {"smiles": "CC(C)Cc1cnn2c3c(c(=O)n(-c4ccc(-c5cnnn5C)cc4)c12)C[C@@H](C)N(C(=O)c1ccc(Br)c(C(F)(F)F)c1)C3", "note": "(stereo in doubt) [Compound 102a, rac-(11R)-12-[4-bromo-3-(trifluoromethyl)benzoyl]-5-isobutyl-11-methyl-7-[4-(3-methyltriazol-4-yl)phenyl]-2,3,7,12-tetrazatricyclo[7.4.0.0^2,6]trideca-1(9),3,5-trien-8-one]", "EC50": "< 50"}, {"smiles": "CNC(=O)c1cnc(-n2c(=O)c3c(n4ncc(Cc5ccccc5)c24)CN(C(=O)c2ccc(Br)c(C(F)(F)F)c2)[C@H](C)C3)nc1", "note": "(stereo in doubt) [Compound 69a, N-methyl-2-[rac-(11R)-5-benzyl-12-[4-bromo-3-(trifluoromethyl)benzoyl]-11-methyl-8-oxo-2,3,7,12-tetrazatricyclo[7.4.0.0^2,6]trideca-1(9),3,5-trien-7-yl]pyrimidine-5-carboxamide]", "EC50": "< 50"}, {"smiles": "CNC(=O)c1cc(-n2c(=O)c3c(n4ncc(CC(C)C)c24)CN(C(=O)c2ccc(Br)c(C(F)(F)F)c2)[C@@H](C)C3)nn1C", "note": "(stereo in doubt) [Compound 77b, N,2-dimethyl-5-[rac-(11S)-12-[4-bromo-3-(trifluoromethyl)benzoyl]-5-isobutyl-11-methyl-8-oxo-2,3,7,12-tetrazatricyclo[7.4.0.0^2,6]trideca-1(9),3,5-trien-7-yl]pyrazole-3-carboxamide]", "EC50": "< 50"}, {"smiles": "C[C@@H]1Cc2c(n3ncc(Cc4ccccc4)c3n(-c3ccc(-c4noc(=O)n4C)cc3)c2=O)CN1C(=O)c1ccc(Br)c(C(F)(F)F)c1", "note": "(stereo in doubt) [Compound 41a, 4-methyl-3-[4-[rac-(11R)-5-benzyl-12-[4-bromo-3-(trifluoromethyl)benzoyl]-11-methyl-8-oxo-2,3,7,12-tetrazatricyclo[7.4.0.0^2,6]trideca-1(9),3,5-trien-7-yl]phenyl]-1,2,4-oxadiazol-5-one]", "EC50": "< 50"}, {"smiles": "CNC(=O)c1cc(-n2c(=O)c3c(n4ncc(CC(C)C)c24)CN(C(=O)c2ccc(Br)c(C(F)(F)F)c2)[C@H](C)C3)nn1C", "note": "(stereo in doubt) [Compound 77a, N,2-dimethyl-5-[rac-(11R)-12-[4-bromo-3-(trifluoromethyl)benzoyl]-5-isobutyl-11-methyl-8-oxo-2,3,7,12-tetrazatricyclo[7.4.0.0^2,6]trideca-1(9),3,5-trien-7-yl]pyrazole-3-carboxamide]", "EC50": "< 50"}, {"smiles": "CC(C)[C@@H](N)C(=O)OCN(C)C(=O)c1ccc(-n2c(=O)c3c(n4ncc(CC5CC5)c24)CN(C(=O)c2ccc(Br)c(C(F)(F)F)c2)[C@H](C)C3)cc1", "note": "[Compound 106, [[4-[(11R)-12-[4-bromo-3-(trifluoromethyl)benzoyl]-5-(cyclopropylmethyl)-11-methyl-8-oxo-2,3,7,12-tetrazatricyclo[7.4.0.0^2,6]trideca-1(9),3,5-trien-7-yl]benzoyl]-methyl-amino]methyl (2S)-2-amino-3-methyl-butanoate]", "EC50": "< 50"}, {"smiles": "CNc1n[nH]c2cc(-n3c(=O)c4c(n5ncc(CC(C)C)c35)CN(C(=O)c3ccc(Br)c(C(F)(F)F)c3)[C@@H](C)C4)ccc12", "note": "(stereo in doubt) [Compound 61b, rac-(11S)-12-[4-bromo-3-(trifluoromethyl)benzoyl]-5-isobutyl-11-methyl-7-[3-(methylamino)-1H-indazol-6-yl]-2,3,7,12-tetrazatricyclo[7.4.0.0^2,6]trideca-1(9),3,5-trien-8-one]", "EC50": "50 to 500"}, {"smiles": "C[C@H]1Cc2c(n3ncc(Cc4ccccc4)c3n(-c3ccc(-n4ccc(C(F)(F)F)n4)cc3)c2=O)CN1C(=O)c1ccc(Br)c(C(F)(F)F)c1", "note": "(stereo in doubt) [Compound 70b, rac-(11S)-5-benzyl-12-[4-bromo-3-(trifluoromethyl)benzoyl]-11-methyl-7-[4-[3-(trifluoromethyl)pyrazol-1-yl]phenyl]-2,3,7,12-tetrazatricyclo[7.4.0.0^2,6]trideca-1(9),3,5-trien-8-one]", "EC50": "500 to 5000"}, {"smiles": "CC(C)Cc1cnn2c3c(c(=O)n(-c4ccc(-c5nncn5C)cc4)c12)C[C@H](C)N(C(=O)c1ccc(Cl)c(C(F)(F)F)c1)C3", "note": "(stereo in doubt) [Compound 67b, rac-(11S)-12-[4-chloro-3-(trifluoromethyl)benzoyl]-5-isobutyl-11-methyl-7-[4-(4-methyl-1,2,4-triazol-3-yl)phenyl]-2,3,7,12-tetrazatricyclo[7.4.0.0^2,6]trideca-1(9),3,5-trien-8-one]", "EC50": "50 to 500"}, {"smiles": "CNC(=O)c1ccc(-n2c(=O)c3c(n4ncc(Cc5ccccc5)c24)CN(C(=O)c2ccc(Br)c(C(F)(F)F)c2)[C@@H](C)C3)nc1", "note": "(stereo in doubt) [Compound 109b, N-methyl-6-[rac-(11S)-5-benzyl-12-[4-bromo-3-(trifluoromethyl)benzoyl]-11-methyl-8-oxo-2,3,7,12-tetrazatricyclo[7.4.0.0^2,6]trideca-1(9),3,5-trien-7-yl]pyridine-3-carboxamide]", "EC50": "< 50"}, {"smiles": "C[C@H]1Cc2c(n3ncc(CC4CC4)c3n(-c3ccc(C(=O)N(C)COC(=O)CN)cc3)c2=O)CN1C(=O)c1ccc(Br)c(C(F)(F)F)c1", "note": "(racemic) [Compound 97, [methyl-[4-[rac-(11S)-12-[4-bromo-3-(trifluoromethyl)benzoyl]-5-(cyclopropylmethyl)-11-methyl-8-oxo-2,3,7,12-tetrazatricyclo[7.4.0.0^2,6]trideca-1(9),3,5-trien-7-yl]benzoyl]amino]methyl 2-aminoacetate]", "EC50": "> 5000"}, {"smiles": "C[C@H]1Cc2c(n3ncc(Cc4ccccc4)c3n(-c3ccc(-c4nnc(C(F)(F)F)[nH]4)cc3)c2=O)CN1C(=O)c1ccc(Br)c(C(F)(F)F)c1", "note": "(stereo in doubt) [Compound 74b, rac-(11S)-5-benzyl-12-[4-bromo-3-(trifluoromethyl)benzoyl]-11-methyl-7-[4-[5-(trifluoromethyl)-4H-1,2,4-triazol-3-yl]phenyl]-2,3,7,12-tetrazatricyclo[7.4.0.0^2,6]trideca-1(9),3,5-trien-8-one]", "EC50": "50 to 500"}, {"smiles": "C[C@H]1Cc2c(n3ncc(CC4CC4)c3n(-c3ccc(C(=O)N(C)CO)cc3)c2=O)CN1C(=O)c1ccc(Br)c(C(F)(F)F)c1", "note": "(stereo in doubt) [Compound 91, N-(hydroxymethyl)-N-methyl-4-[rac-(11S)-12-[4-bromo-3-(trifluoromethyl)benzoyl]-5-(cyclopropylmethyl)-11-methyl-8-oxo-2,3,7,12-tetrazatricyclo[7.4.0.0^2,6]trideca-1 (9),3,5-trien-7-yl]benzamide]", "EC50": "> 5000"}]}]}
